Assay results: ChEMBL document CHEMBL1133955, “Design and synthesis of new inhibitors of HIV-1 protease dimerization with conformationally constrained templates” (Bioorg Med Chem Lett, 2001)

Key:
[1] = biological target: Human immunodeficiency virus type 1 protease (Human immunodeficiency virus 1, UniProt Q72874); assay: Inhibitory activity against HIV-1 protease
[2] = biological target: Human immunodeficiency virus type 1 protease (Human immunodeficiency virus 1) (UniProt Q72874); assay: Compound was tested for inhibition of HIV-1 protease by a dissociative mechanism
[3] = biological target: Human immunodeficiency virus type 1 protease (Human immunodeficiency virus 1) (UniProt Q72874); assay: Compound was tested for inhibition of HIV-1 protease (taken from ZhangPoorman plot)

SMILES	IC50 [1]	Kid [2]	Kid [3]
CC[C@@H](C)[C@H](NC(=O)[C@@H](NC(=O)[C@H](CC(C)C)NC(=O)[C@@H](N)Cc1c[nH]c2ccccc12)[C@H](C)O)C(=O)NCCc1cccc2c1oc1c(CCC(=O)N[C@H](C(=O)N[C@@H](Cc3ccc(O)cc3)C(=O)N[C@@H](CC(N)=O)C(=O)N[C@@H](Cc3ccccc3)C(=O)O)[C@H](C)O)cccc12	12 µM	5.4 µM	
COc1ccc(NC(=O)C(=O)O)cc1C(=O)NNC(=O)OCC1c2ccccc2-c2ccccc21	30 µM		9.1 µM
